Earlier results on one compound are cited in patent US9694008B2, “Fast-dissolving oral film preparation comprising aripiprazole” (CMG Pharmaceutical CO., LTD., priority 2012, dated 2017).

For the series the following is noted: at 25° C.

In the case of `O=C1CCc2ccc(OCCCCN3CCN(c4cccc(Cl)c4Cl)CC3)cc2N1` [aripiprazole, 7-{4-[4-(2,3-dichlorophenyl)piperazin-1-yl]butoxy}-3,4-dihydroquinolin-2(1H)-one], the Solubility in water entry is given as “about 0.00001 w/v %”.
